Several values for one entry are separate records, joined by “and”; a condition that tells them apart may be missing. Identical values can stand only once.
Columns and labels:
human TLR2 [1] = biological target: T1, human TLR2 (Homo sapiens, UniProt O60603); experiment: Activation of human TLR2 II: HEK-BLUE-hTLR2 NF-kB/SEAP reporter assay; format: cell-based; settings: for optical density (650 nm): screenings 1-3
T1 construct: expressed in transfected cells; host or cells: HEK-Blue hTLR2 cells
Procedure: The potency of the compounds as activators of human TLR-2s is tested in an in vitro assay in HEK-BLUE-hTLR2 cells.
HEK-BLUE-hTLR2 cells are designed for studying the stimulation of human TLR2 (hTLR2) by monitoring the activation of NF-kB. HEK-BLUE-hTLR2 cells are obtained by co-transfection of the hTLR2 and SEAP (secreted embryonic alkaline phosphatase) reporter genes into HEK293 cells. Stimulation with a TLR2 ligand activates NF-kB which induces the production of SEAP.
HEK-BLUE-hTLR2 cells were purchased from InvivoGen (San Diego, CA, USA). Cells were grown in DMEM supplemented with 10% FCS, 100 U/ml penicillin, 100 ug/ml streptomycin and 2 mM L-glutamine, 100 µg/mL Normocin in the presence of selection antibiotic purchased from InvivoGen and passaged when 70% confluence was reached per manufacturer’s recommendation.
i) A serial dilution of respective compounds were prepared in saline and added in […] of each dilution in triplicates per well in a flat bottom 96-well plate and placed in the incubator while waiting for the cells.
ii) Remove HEK-BLUE-hTLR2 cells in a T-75 flask from incubator and discard the growth media.
iii) Gently rinse the cells with prewarmed 10 ml of PBS
iv) Add 5 ml of prewarmed PBS and place the cells in 37° C. for 2 mins and then detach the cells by gently pipetting up and down the PBS on the surface where the cells adhere.
v) Cells suspension at the density of 280,000 cells/ml is prepared in HEK-Blue™ Detection medium which is purchased from InvivoGen and prepared according to the manufacturer’s instruction,
vi) Add immediately […] of the cell suspension per well of the plate which contains the solution of the compounds. […]

human TLR2 [2] = biological target: T1, human TLR2; experiment: Activation of human TLR2 III: HEK-Blue hTLR2 dose response (SEAP reporter); format: cell-based; settings: for optical density (650 nm): screenings 1-3
Procedure: (§1) Toll-Like Receptor (TLR) stimulation is tested by assessing NF-KB activation in the TLR expressing cell lines. HEK-Blue h/mTLR2 cells have been stably transfected with human or mouse TLR2 and CD14. The activity of the test articles are tested on human and mouse TLR2, as potential agonists. The test articles are evaluated at seven concentrations and compared to control ligands (see list below). These steps are performed in triplicate.
(§2) A 5 µg/mL working stock was then prepared for each compound from the 20 µg/mL dilution in sterile PBS. Starting from the 5 µg/mL working stock, a series of six 1:4 serial dilutions were made by mixing 100 µL of the previous highest dilution with 300 µL sterile PBS.
(§3) The secreted embryonic alkaline phosphatase (SEAP) reporter is under the control of a promoter inducible by the transcription factor NF-κB. This reporter gene allows the monitoring of signaling through the TLR, based on the activation of NF-κB. In a 96-well plate (200 µL total volume) containing the appropriate cells (50,000 - 75,000 cells/well), 20 µL of the test article or the positive control ligand (HKLC) is added to the wells. The media added to the wells is designed for the detection of NF-κB induced SEAP expression. After a 16-24-hour incubation the optical density (OD) is read at 650 nm on a Molecular Devices SpectraMax 340PC absorbance detector.

mouse TLR2 = biological target: T2, mouse TLR2 (Mus musculus, UniProt Q9QUN7); experiment: HEK-Blue mTLR2 dose response (SEAP reporter); format: cell-based
T2 construct: expressed in transfected cells; host or cells: HEK-Blue mTLR2 cells
T2 sequence (Q9QUN7 25-784): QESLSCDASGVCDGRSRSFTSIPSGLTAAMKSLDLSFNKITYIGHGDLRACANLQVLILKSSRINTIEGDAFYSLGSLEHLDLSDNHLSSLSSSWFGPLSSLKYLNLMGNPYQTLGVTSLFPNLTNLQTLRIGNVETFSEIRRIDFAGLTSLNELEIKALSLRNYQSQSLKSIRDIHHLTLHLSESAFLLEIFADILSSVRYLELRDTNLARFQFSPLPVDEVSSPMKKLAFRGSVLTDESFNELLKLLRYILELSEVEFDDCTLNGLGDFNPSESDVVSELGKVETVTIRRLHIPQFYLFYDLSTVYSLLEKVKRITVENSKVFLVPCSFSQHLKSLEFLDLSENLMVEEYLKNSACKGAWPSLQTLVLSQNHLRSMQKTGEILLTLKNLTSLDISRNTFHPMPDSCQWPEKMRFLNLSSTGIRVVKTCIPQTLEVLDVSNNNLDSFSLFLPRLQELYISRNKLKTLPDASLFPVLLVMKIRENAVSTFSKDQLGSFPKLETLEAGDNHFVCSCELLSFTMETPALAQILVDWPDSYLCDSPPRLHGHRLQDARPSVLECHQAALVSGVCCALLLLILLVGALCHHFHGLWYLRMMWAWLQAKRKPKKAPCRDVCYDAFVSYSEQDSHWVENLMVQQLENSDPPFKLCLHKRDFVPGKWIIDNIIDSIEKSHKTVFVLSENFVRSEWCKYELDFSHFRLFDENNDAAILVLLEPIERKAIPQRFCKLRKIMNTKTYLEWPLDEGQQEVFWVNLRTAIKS
T2 sequence (Q9Y2C9 32-796 partner): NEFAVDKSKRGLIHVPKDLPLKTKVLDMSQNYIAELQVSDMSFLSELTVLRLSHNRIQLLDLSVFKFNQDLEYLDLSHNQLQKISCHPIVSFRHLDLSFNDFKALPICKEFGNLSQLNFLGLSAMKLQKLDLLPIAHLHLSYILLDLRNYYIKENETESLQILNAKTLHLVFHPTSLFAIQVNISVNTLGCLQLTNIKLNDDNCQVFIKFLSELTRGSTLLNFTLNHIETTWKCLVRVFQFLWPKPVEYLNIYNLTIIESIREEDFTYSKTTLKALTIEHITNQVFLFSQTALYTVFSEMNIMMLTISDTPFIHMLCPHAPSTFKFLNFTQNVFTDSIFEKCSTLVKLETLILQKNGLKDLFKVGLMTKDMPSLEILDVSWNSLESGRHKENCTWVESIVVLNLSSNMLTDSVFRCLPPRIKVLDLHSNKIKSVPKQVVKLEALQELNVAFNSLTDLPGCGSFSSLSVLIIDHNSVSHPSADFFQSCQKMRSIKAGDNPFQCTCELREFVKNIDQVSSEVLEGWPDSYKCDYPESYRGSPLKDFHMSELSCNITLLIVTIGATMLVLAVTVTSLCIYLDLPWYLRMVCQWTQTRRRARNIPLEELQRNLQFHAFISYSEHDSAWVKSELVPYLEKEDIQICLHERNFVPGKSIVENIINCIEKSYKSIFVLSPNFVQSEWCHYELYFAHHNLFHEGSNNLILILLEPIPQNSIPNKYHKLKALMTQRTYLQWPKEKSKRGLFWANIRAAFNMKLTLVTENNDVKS
Procedure: as §1, §2, §3

HEK-Blue Null1 cells = experiment: TLR- control cell line HEK-Blue Null1 (control for human TLR2); format: cell-based
Procedure: as §3

HEK-Blue Null2 cells = experiment: TLR- control cell line HEK-Blue Null2 (control for mouse TLR2); format: cell-based
Procedure: as §3

[3] = Stability IV: formulation pH during accelerated storage; format: physicochemical
Procedure: Each compound was formulated in 0.9% w/w saline with addition of 0.1% w/w EDTA at about pH 5. The formulations were stored in the dark under accelerated conditions (40° C./75% RH) and reference formulations were stored at -80° C. At days 0, 9 and 28, samples were analysed by UHPLC and pH was measured.
The remaining ~ 1 mL of solution in the clear glass HPLC vials was stored at 40° C./75% RH and was used to measure pH at each time point.
The formulation pH data recorded at each time point are compiled in Table 19. There was a general trend for the pH to increase with time but the effect was not pronounced.

T1 sequence (O60603 21-784): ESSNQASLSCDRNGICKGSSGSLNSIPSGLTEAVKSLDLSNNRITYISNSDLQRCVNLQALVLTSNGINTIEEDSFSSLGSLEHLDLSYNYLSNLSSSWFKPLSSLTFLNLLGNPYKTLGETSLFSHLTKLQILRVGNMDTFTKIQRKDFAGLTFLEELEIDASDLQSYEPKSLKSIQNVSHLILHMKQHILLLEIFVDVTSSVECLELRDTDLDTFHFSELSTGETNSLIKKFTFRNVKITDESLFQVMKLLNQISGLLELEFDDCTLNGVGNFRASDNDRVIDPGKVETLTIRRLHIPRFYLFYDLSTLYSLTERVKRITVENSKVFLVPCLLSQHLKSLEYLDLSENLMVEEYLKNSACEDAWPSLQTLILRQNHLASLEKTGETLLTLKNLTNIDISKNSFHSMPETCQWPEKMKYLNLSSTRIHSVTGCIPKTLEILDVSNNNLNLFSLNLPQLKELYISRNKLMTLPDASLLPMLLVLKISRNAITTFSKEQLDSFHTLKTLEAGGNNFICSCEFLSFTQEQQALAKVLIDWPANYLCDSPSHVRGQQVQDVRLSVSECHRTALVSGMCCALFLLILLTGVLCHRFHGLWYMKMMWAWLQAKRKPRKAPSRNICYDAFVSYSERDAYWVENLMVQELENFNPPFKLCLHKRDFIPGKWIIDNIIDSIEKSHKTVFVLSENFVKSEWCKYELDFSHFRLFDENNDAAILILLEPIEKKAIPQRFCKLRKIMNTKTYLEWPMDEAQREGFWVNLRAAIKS
T1 sequence (Q9Y2C9 32-796 partner): as the sequence (Q9Y2C9 32-796 partner) above

optical density (650 nm) (human TLR2 [1]; 0.1 ng/mL): 0.239 and 0.202 and 0.208
optical density (650 nm) (human TLR2 [1]; 0.31 ng/mL): 0.116 and 0.132 and 0.137
optical density (650 nm) (human TLR2 [1]; 0.5 ng/mL): 0.585 and 0.558 and 0.559
optical density (650 nm) (human TLR2 [1]; 2.0 ng/mL): 1.429 and 1.308 and 1.638
optical density (650 nm) (human TLR2 [1]; 7.8 ng/mL): 2.187 and 2.257 and 2.302
optical density (650 nm) (human TLR2 [1]; 31.3 ng/mL): 2.422 and 2.423 and 2.449
optical density (650 nm) (human TLR2 [1]; 125 ng/mL): 2.409 and 2.564 and 2.615
EC50 (human TLR2 [1]; HEK-BLUE-hTLR2 cells): 0.74 nM
activity at TLR2 (in words) (human TLR2 [1]; HEK-BLUE-hTLR2 cells): significant activity
fold induction at 0.0001 µg/mL (human TLR2 [1]; HEK-Blue hTLR2, 0.1 ng/mL, read-out: Fold induction (ratio of average induced value to average non-induced value)): 2.2
fold induction at 0.00031 µg/mL (human TLR2 [1]; HEK-Blue hTLR2, 0.31 ng/mL, read-out: Fold induction (ratio of average induced value to average non-induced value)): 1.3
fold induction at 0.0005 µg/mL (human TLR2 [1]; HEK-Blue hTLR2, 0.5 ng/mL, read-out: Fold induction (ratio of average induced value to average non-induced value)): 5.8
fold induction at 0.002 µg/mL (human TLR2 [1]; HEK-Blue hTLR2, 2.0 ng/mL, read-out: Fold induction (ratio of average induced value to average non-induced value)): 15
fold induction at 0.0078 µg/mL (human TLR2 [1]; HEK-Blue hTLR2, 7.8 ng/mL, read-out: Fold induction (ratio of average induced value to average non-induced value)): 23.2
fold induction at 0.0313 µg/mL (human TLR2 [1]; HEK-Blue hTLR2, 31.3 ng/mL, read-out: Fold induction (ratio of average induced value to average non-induced value)): 25.1
fold induction at 0.125 µg/mL (human TLR2 [1]; HEK-Blue hTLR2, 125 ng/mL, read-out: Fold induction (ratio of average induced value to average non-induced value)): 26.1
Average optical density (650 nm) (human TLR2 [2]; 0.12 pg/mL): 1.362
optical density (650 nm) (human TLR2 [2]; 0.12 pg/mL): 1.443 and 1.313 and 1.329
Average optical density (650 nm) (human TLR2 [2]; 0.49 pg/mL): 1.860
optical density (650 nm) (human TLR2 [2]; 0.49 pg/mL): 1.892 and 1.785 and 1.902
Average optical density (650 nm) (human TLR2 [2]; 1.95 pg/mL): 2.045
optical density (650 nm) (human TLR2 [2]; 1.95 pg/mL): 2.149 and 2.008 and 1.979
Average optical density (650 nm) (human TLR2 [2]; 7.81 pg/mL): 2.411
optical density (650 nm) (human TLR2 [2]; 7.81 pg/mL): 2.420 and 2.446 and 2.366
Average optical density (650 nm) (human TLR2 [2]; 31.25 pg/mL): 2.457
optical density (650 nm) (human TLR2 [2]; 31.25 pg/mL): 2.492 and 2.500 and 2.380
Average optical density (650 nm) (human TLR2 [2]; 125 pg/mL): 2.568
optical density (650 nm) (human TLR2 [2]; 125 pg/mL): 2.608 and 2.541 and 2.555
Average optical density (650 nm) (human TLR2 [2]; 500 pg/mL): 2.471
optical density (650 nm) (human TLR2 [2]; 500 pg/mL): 2.584 and 2.404 and 2.426
stimulatory / agonist activity for hTLR2 (in words) (human TLR2 [2]; HEK-Blue hTLR2): stimulatory activity
fold induction at 120 fg/mL (human TLR2 [2]; HEK-Blue hTLR2, 0.12 pg/mL, read-out: Fold Induction (ratio of average induced value to average non-induced value)): 18.7
fold induction at 490 fg/mL (human TLR2 [2]; HEK-Blue hTLR2, 0.49 pg/mL, read-out: Fold Induction (ratio of average induced value to average non-induced value)): 25.5
fold induction at 1.95 pg/mL (human TLR2 [2]; HEK-Blue hTLR2, 1.95 pg/mL, read-out: Fold Induction (ratio of average induced value to average non-induced value)): 28
fold induction at 7.81 pg/mL (human TLR2 [2]; HEK-Blue hTLR2, 7.81 pg/mL, read-out: Fold Induction (ratio of average induced value to average non-induced value)): 33
fold induction at 31.25 pg/mL (human TLR2 [2]; HEK-Blue hTLR2, 31.25 pg/mL, read-out: Fold Induction (ratio of average induced value to average non-induced value)): 33.7
fold induction at 0.000125 µg/mL (human TLR2 [2]; HEK-Blue hTLR2, 125 pg/mL, read-out: Fold Induction (ratio of average induced value to average non-induced value)): 35.2
fold induction at 0.0005 µg/mL (human TLR2 [2]; HEK-Blue hTLR2, 500 pg/mL, read-out: Fold Induction (ratio of average induced value to average non-induced value)): 33.9
EC50 (human TLR2 [2]; agonism of hTLR2, HEK-Blue hTLR2): 0.0509 nM
stimulatory / agonist activity for mTLR2 (in words) (mouse TLR2): stimulatory activity
pH of formulation ([3]; 0-days): 5.6
pH of formulation ([3]; 9-days, 40° C./75% RH): 5.7
pH of formulation ([3]; 28-days, 40° C./75% RH): 5.7
SMILES: CCCCCCCCCCCCCCC(C)C(=O)OCC[C@H](CSC[C@H](N)C(=O)N[C@@H](CO)C(=O)NCCOCCOCCOCCOCCOCCOCCOCCOCCOCCOCCOCCOCCOCCOCCOCCOCCOCCOCCOCCOCCOCCOCCOCCOCCOCCOCCOCCOCCC(=O)NCC(N)=O)OC(=O)C(C)CCCCCCCCCCCCCC (stereo partly drawn) [Compound B12]
stimulatory response in HEK-Blue Null1 (human) cells (in words) (HEK-Blue Null1 cells): not observed
stimulatory response in HEK-Blue Null2 (mouse) cells (in words) (HEK-Blue Null2 cells): not observed
